Values after ≈ are worked out from the molar mass of the structure shown. Active and inactive are the calls of the source. The rule behind the calls is not given here. Bounds are passed on as bounds.

Series [1] concerns Escherichia coli. The series is described as follows: Antibacterial activity against wild-type Escherichia coli ATCC 25922 by CLSI M100-S17 protocol based method. The format is functional.
Series [2] relates to Staphylococcus aureus. Kind of series: Inhibition of DNA synthesis in wild-type Staphylococcus aureus ATCC 29213 at MIC. The format is functional.
Series [3] deals with Escherichia coli ATCC 25922. Kind of series: (§1) Inhibition of Escherichia coli ATCC 25922 topoisomerase-4 ParC at 100 uM using kinetoplast DNA as substrate after 60 mins relative to control.
Series [4] is described as follows: Inhibition of DNA gyrase-A in Escherichia coli ATCC 25922 using relaxed pBR322 DNA as substrate after 30 mins by ethidium bromide staining based agarose gel electrophoresis method.
The next series has as its system Klebsiella pneumoniae. The series is described as follows: Antibacterial activity against Klebsiella pneumoniae ATCC 35657 by CLSI M100-S17 protocol based method. The format is functional.
The test system of series [5] is Escherichia coli. Kind of series: Antibacterial activity against wild-type Escherichia coli ATCC 25922 in presence of human serum albumin by CLSI M100-S17 protocol based method. The format is functional.
Series [6] has as its system Escherichia coli. The series is described as follows: Antibacterial activity against quinolone resistant Escherichia coli SKM18 by CLSI M100-S17 protocol based method. The format is functional.
The subject of series [7] is Staphylococcus aureus. The series is described as follows: Antibacterial activity against wild-type Staphylococcus aureus ATCC 29213 by CLSI M100-S17 protocol based method. The format is functional.
For series [8], the system named is Escherichia coli. Kind of series: Antibacterial activity against Escherichia coli BAS849 by CLSI M100-S17 protocol based method. The format is functional.
The next series has as its system Acinetobacter baumannii. The series is described as follows: Antibacterial activity against Acinetobacter baumannii ATCC BAA-747 by CLSI M100-S17 protocol based method. The format is functional.
Series [9] is described as follows: Selectivity ratio of MIC for quinolone resistant Escherichia coli SKM18 to MIC for wild-type Escherichia coli ATCC 25922. The format is functional.
Series [10] concerns Escherichia coli. The series is described as follows: Ratio of MIC in presence to absence of HSA for wild-type Escherichia coli ATCC 25922. The format is functional.
Series [11] in a line: Oral bioavailability in Sprague-Dawley rat. The format is ADME, organism-based. To be noted: in vivo.
Series [12] deals with Escherichia coli. The series is described as follows: Antibacterial activity against clinical isolates of Escherichia coli by broth microdilution assay. The format is functional.
Series [13] is described as follows: as §1.
A short description of series [14]: Terminal half life in Sprague-Dawley rat at 10 mg/kg, iv administered as single dose. The format is ADME, organism-based. The note with it: in vivo, read-out: beta t1/2 (converted).
Series [15] in a line: Protein binding in mouse plasma. The format is ADME, cell-free. To be noted: read-out: PPB (converted).
The subject of series [16] is Rattus norvegicus. Kind of series: Dose normalized AUC (0 to 24 hrs) in Sprague-Dawley rat at 10 mg/kg, iv administered as single dose. The format is ADME, organism-based. The note with it: in vivo.
Series [17] deals with Staphylococcus aureus. The series is described as follows: Antibacterial activity against multidrug resistant Staphylococcus aureus by broth microdilution assay. The format is functional.
Series [18] can be described thus: Volume of distribution at steady state in Sprague-Dawley rat at 10 mg/kg, iv administered as single dose. To be noted: in vivo, read-out: Vdss. The format is ADME, organism-based.
The test system of series [19] is Escherichia coli. The series is described as follows: Antibacterial activity against wild-type Escherichia coli ATCC 25922 infected in iv dosed CD-1 mouse assessed as mouse survival treated for 1 hr followed by reinfection with bacteria measured at 96 hrs post infection. The format is functional. The note with it: ATCC 25922, iv, read-out: PD50.
Series [20] is described as follows: Selectivity ratio of MIC for wild-type Escherichia coli ATCC 25922 to MIC for Escherichia coli BAS849. The format is functional.
The test system of series [21] is Staphylococcus aureus. Kind of series: Inhibition of protein synthesis in wild-type Staphylococcus aureus ATCC 29213 at 1.6 ug/ml. The format is functional.
Series [22] can be described thus: Volume of distribution at steady state in Sprague-Dawley rat at 5 mg/kg, iv administered as single dose. The format is ADME, organism-based. The note with it: in vivo, read-out: Vdss.
Series [23] can be described thus: Terminal half life in Sprague-Dawley rat at 5 mg/kg, iv administered as single dose. The note with it: in vivo, read-out: beta t1/2 (converted). The format is ADME, organism-based.
Series [24] has as its system Rattus norvegicus. The series is described as follows: Dose normalized AUC (0 to 24 hrs) in Sprague-Dawley rat at 5 mg/kg, iv administered as single dose. To be noted: in vivo. The format is ADME, organism-based.

Regarding `CCc1c(-c2ccc(N(C)C)cc2)[nH]c(=O)c(C(=O)O)c1O`, the MIC with Escherichia coli [1] is 0.78 to 0.8 µg/mL (≈ 2.58 to 2.65 µM); against Klebsiella pneumoniae, 3.9 µg/mL (≈ 12.9 µM); in the series with Escherichia coli [5], over 25 µg/mL; in the series with Escherichia coli [6] it was 15.6 µg/mL (≈ 51.6 µM); in the series on Staphylococcus aureus [7] it was 3.1 µg/mL (≈ 10.3 µM); in the series on Escherichia coli [8] it was 0.03 µg/mL (≈ 0.0992 µM). The same compound gave an MIC in the series with Acinetobacter baumannii of 6.3 µg/mL (≈ 20.8 µM). Moreover, the inhibition entry in the series on Staphylococcus aureus [2] was “Active”. Moreover, the inhibition in [3] amounted to 30%. In addition, the IC50 in series [4] stood at 11 µM.
For `CCc1c(-c2ccc(N3CCC(N4CCCC4)C3)cc2)[nH]c(=O)c(C(=O)O)c1O` (stereo not given), the MIC was determined as 1.6 µg/mL (≈ 4.03 µM) in the series on Escherichia coli [1]; 1.6 µg/mL (≈ 4.03 µM) against Klebsiella pneumoniae; 3.1 µg/mL in the series with Escherichia coli [5]; 6.3 µg/mL (≈ 15.9 µM) against Escherichia coli [6]; 0.19 µg/mL (≈ 0.478 µM) against Escherichia coli [8]; 3.1 µg/mL (≈ 7.8 µM) against Acinetobacter baumannii. Further, the Selectivity ratio in series [9] was under 4. Further, the Ratio with Escherichia coli [10] is listed as under 4.
With `CCc1c(-c2ccc(N3CC4CCCNC4C3)cc2)[nH]c(=O)c(C(=O)O)c1O` (stereo not given), the MIC against Escherichia coli [1] was 0.78 µg/mL (≈ 2.03 µM); in the series with Escherichia coli [12], 0.125 to 2 µg/mL (≈ 0.326 to 5.22 µM); against Klebsiella pneumoniae it was 0.8 µg/mL (≈ 2.09 µM); in the series on Escherichia coli [5] it was 1.6 µg/mL; against Escherichia coli [6] it was 3.1 µg/mL (≈ 8.08 µM); with Escherichia coli [8], 0.19 µg/mL (≈ 0.496 µM). Also, the MIC against Staphylococcus aureus [17] is 0.125 to 16 µg/mL (≈ 0.326 to 41.7 µM); in the series with Acinetobacter baumannii it was 1.6 µg/mL (≈ 4.17 µM). The compound further yielded a bioavailability in [11] of 8%. The MIC50 against Escherichia coli [12] and against Staphylococcus aureus [17] was 0.5 µg/mL (≈ 1.3 µM) throughout. The MIC90 is 2 µg/mL (≈ 5.22 µM) against Escherichia coli [12] and 8 µg/mL (≈ 20.9 µM) against Staphylococcus aureus [17]. Further, in [13], the IC50 was determined as 15.7 µM. The half-life in series [14] is 234 min. The fraction unbound in [15] is 0.27. Moreover, in the series with Escherichia coli [10], the Ratio is listed as under 4. In the series on Rattus norvegicus [16], this compound showed an AUC/dose of 13.9 µg·h/mL. Further, the Vd in series [18] turned out to be 2.9 L/kg. For the same compound, in the series with Escherichia coli [19], the ED50 is over 20 mg/kg.
`CCc1c(-c2ccc(N(C)C)cc2)n(Cc2ccccc2)c(=O)c2c(O)cc(=O)oc12`: the MIC in the series with Escherichia coli [1] was over 12.5 µg/mL; against Staphylococcus aureus [7], 3.1 µg/mL (≈ 7.44 µM).
For `CCc1c(-c2ccc(N3CCC(N(C)C)C3)cc2)[nH]c(=O)c(C(=O)O)c1O` (stereo not given), the MIC was 0.78 µg/mL (≈ 2.1 µM) in the series on Escherichia coli [1]; 1.6 µg/mL (≈ 4.31 µM) in the series with Klebsiella pneumoniae; 3.1 µg/mL in the series with Escherichia coli [5]; 3.1 µg/mL (≈ 8.35 µM) in the series on Escherichia coli [6]; 0.19 µg/mL (≈ 0.512 µM) with Escherichia coli [8]; 1.6 µg/mL (≈ 4.31 µM) in the series on Acinetobacter baumannii. Also, the Selectivity ratio in series [9] is under 4. Besides, the Ratio in the series with Escherichia coli [10] is reported as under 4.
Take `CCc1c(-c2ccc(N3CCCC3)cc2)[nH]c(=O)c(C(=O)O)c1O`: the MIC against Escherichia coli [1] was 1.6 µg/mL (≈ 4.87 µM); with Escherichia coli [5], over 62.5 µg/mL; with Escherichia coli [6] it was over 62.5 µg/mL; in the series with Escherichia coli [8] it was 0.03 µg/mL (≈ 0.0914 µM). In addition, the Ratio in the series on Escherichia coli [10] is on record as >30 - 40. In series [20], the Selectivity ratio is over 50.
Regarding `COc1c(N2C[C@@H]3CCCN[C@@H]3C2)c(F)cc2c(=O)c(C(=O)O)cn(C3CC3)c12` [MOXIFLOXACIN], in the series with Staphylococcus aureus [17], the MIC50 came to 4 µg/mL (≈ 9.96 µM) and the MIC90 was 32 µg/mL (≈ 79.7 µM). Moreover, the ED50 in the series with Escherichia coli [19] is under 3 mg/kg.
`CCc1c(O)c(C(=O)O)c(=O)n(Cc2ccccc2)c1-c1ccc(N(C)C)cc1`: the MIC with Escherichia coli [1] was over 12.5 µg/mL; in the series with Staphylococcus aureus [7] it was 1.6 µg/mL (≈ 4.08 µM). The inhibition result in the series on Staphylococcus aureus [21] and in the series with Staphylococcus aureus [2] was “Active” each time.
Consider `CCc1c(-c2ccc(N3C[C@@H]4[C@@H](N)[C@@H]4C3)cc2)[nH]c(=O)c(C(=O)O)c1O`, for which the MIC in the series with Escherichia coli [1] is 0.19 µg/mL (≈ 0.535 µM); against Klebsiella pneumoniae, 0.39 µg/mL (≈ 1.1 µM); in the series on Escherichia coli [5], 0.78 µg/mL; with Escherichia coli [6] it was 12.5 µg/mL (≈ 35.2 µM); in the series on Escherichia coli [8], 0.049 µg/mL (≈ 0.138 µM); in the series with Staphylococcus aureus [17], 0.5 to 8 µg/mL (≈ 1.41 to 22.5 µM). In the series with Acinetobacter baumannii, this compound had an MIC of 0.78 µg/mL (≈ 2.19 µM). Besides, the Vd in [22] amounted to 0.54 L/kg. Besides, in [11], the bioavailability stood at 17%. For the same compound, the half-life in series [23] is 174 min. Also, the MIC50 against Escherichia coli [12] came out at 0.25 µg/mL (≈ 0.703 µM); against Staphylococcus aureus [17] it was 1 µg/mL (≈ 2.81 µM). Further, the MIC90 in the series on Escherichia coli [12] and in the series with Staphylococcus aureus [17] was 8 µg/mL (≈ 22.5 µM) throughout. Also, in the series with Rattus norvegicus [24], the AUC/dose is 30.7 µg·h/mL. For the same compound, the IC50 in series [13] was 2.4 µM; in series [4], 0.77 µM. Besides, in [15], the fraction unbound is 0.12. In the series on Escherichia coli [19], the ED50 worked out at 8 mg/kg.

(Values after ChEMBL document CHEMBL4043274, “4-Hydroxy-2-pyridones: Discovery and evaluation of a novel class of antibacterial agents targeting DNA synthesis” (Bioorg Med Chem Lett, 2017).)
